We go through 98 compounds from PubChem BioAssay AID493003 (Sanford-Burnham Center for Chemical Genomics, 2010).

Activity calls are given as the source filed them. No rule for the calls is given here.

The test concerns S. cerevisiae tim10-1 mutant growth, luminescence. As to the kind of experiment: growth inhibitors of tim10-1 mutant yeast, dose response, luminescence, S. cerevisiae, uHTS hits (AID 493003).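 Also: yeast growth measured after about 22 hours at 25 °C.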
Take `O=C(/C(N=Nc1cccc(C(F)(F)F)c1)=C(/O)c1cccs1)C(F)(F)F`: the IC50 was > 100 µM (inactive).
As for `O=C1C2C(c3ccccc3)CC=CC2[C@H](c2ccc3ccccc3c2)N1Cc1ccccc1` (stereo partly drawn), the IC50 is 22.9 µM.
Turning to `O=C(/C=C/c1ccc2c(c1)OCCCO2)c1ccccc1O`, the IC50 was 12.2 µM.
The result for `CN(/N=C/c1ccc([N+](=O)[O-])o1)c1ccccc1` reads 32.7 µM; that for `Cc1ccc(O)c(-c2cc(-c3cccc(F)c3)n[nH]2)c1`, 97.9 µM.
As for `Nc1nc(Nc2ccccc2)nc2ccccc12`, the figure is 28.1 µM; as for `CSc1ccc(S(=O)(=O)NCc2ccccc2Cl)cc1`, 22.4 µM; as for `Cc1cc(C)c(CSc2ncc(-c3ccc([N+](=O)[O-])cc3)[nH]2)c(C)c1`, 12.9 µM.
`Fc1c(F)c(C(F)(F)F)c(F)c(F)c1N/N=C\c1cccs1`: the IC50 was 11 µM.
With `CC(C)NC(=S)N/N=C1\CCCCc2ccccc21`, the IC50 is 13.9 µM.
For the compound `COc1cccc(-c2nn3c(-c4ccccn4)nnc3s2)c1`, the IC50 is 33.4 µM.
The result for `COc1cccc(C(=O)CSc2nnnn2C2CCCCC2)c1` reads 28.2 µM; that for `Cc1ccc(C(=O)NC(=S)Nc2ccccc2C)cc1`, 44.5 µM; that for `O=C(/C=C/c1c[nH]c2ccccc12)c1ccccc1`, 78.2 µM.
For the compound `CC1=C/C(=N\OS(=O)(=O)c2ccccc2)C(C)=CC1=O`, the IC50 was 0.3 µM.
The result for `Cc1nn(Cc2ccc(Cl)cc2)c(C)c1NC(=O)c1noc2c1CCCCC2` reads 23.5 µM; that for `O=c1cc(-c2ccc(C3CCCCC3)cc2)[nH][nH]1`, 29.5 µM.
As for `COc1cccc(/C=N/n2c(C3CCCCC3)n[nH]c2=S)c1O`, the figure is 32.3 µM; as for `Cc1ccccc1OCC(=O)Nc1ccc(S(=O)(=O)N2CCCC2)cc1`, 15.6 µM; as for `COc1ccc(-c2nn(-c3ccccc3)cc2/C=C(\CC(=O)O)c2nc3ccccc3s2)cc1OC`, 60.8 µM.
The result for `c1ccc(-c2cc(-c3nc4ccccc4[nH]3)c3ccccc3n2)cc1` reads 49.6 µM; that for `Brc1ccc(-c2cn3c(n2)CCc2ccc4cccnc4c2-3)cc1`, > 100 µM (inactive).
Turning to `Cc1cccc(/C(N)=N/OC(=O)COc2ccc(Cl)cc2)c1`, the IC50 was 48.4 µM.
For the compound `O=C(Nc1ccc(Cl)c(C(F)(F)F)c1)c1ccco1`, the IC50 is 28.7 µM.
Regarding `CCOC(=O)c1cc(-c2cccs2)nc2c1c(C)nn2-c1ccccn1`, the IC50 was 11 µM.
Take `COc1ccc(Br)cc1[C@H]1[C@H]2C=CC[C@@H](C)[C@@H]2C(=O)N1Cc1ccccc1`: the IC50 was 7.88 µM.
As for `Cc1ccc(C(=O)O/N=C(\N)c2ccccn2)c(C)c1`, the figure is 17 µM; as for `CC(C)(C)c1ccc(C(=O)CC(Sc2ccc(Cl)cc2)C(=O)O)cc1` (stereo not drawn), 27.6 µM; as for `COc1ccc(N2C(=O)CC(Sc3nc4ccccc4s3)C2=O)cc1` (stereo not drawn), 32.5 µM.
For the compound `COc1ccc2cc3cc(C(=O)NCCN4CCN(Cc5ccccc5)CC4)oc3nc2c1`, the IC50 was 27.9 µM.
Turning to `O=[N+]([O-])c1ccc2oc(C(O)c3cccc(Cl)c3)cc2c1` (stereo not drawn), the IC50 was 15.1 µM.
The result for `O=C(/C=C/c1ccccc1)CC(O)(c1ccccc1)C(F)(F)F` (stereo not drawn) reads 24.2 µM; that for `C/C=C(/C(=C/C)c1ccc(O)cc1)c1ccc(O)cc1`, 25.6 µM.
The result for `CCCCCCC(=O)N(O)C1CC(=O)N(c2ccc(C)cc2)C1=O` (stereo not drawn) reads 12.2 µM; that for `C=CCNc1nc(-c2ccccn2)nnc1-c1ccccc1`, 29.3 µM; that for `Cn1c(NCCCO)nc2c(c1=O)C1(CCCCC1)Cc1ccccc1-2`, 12.3 µM.
The result for `CC1=C/C(=N\OS(=O)(=O)c2ccccc2)C=CC1=O` reads 0.46 µM; that for `Cc1nc2scc(C)n2c(=O)c1S(=O)(=O)N1CCN(c2cccc(C(F)(F)F)c2)CC1`, 47.3 µM; that for `Cc1ccc(NC(=O)c2cc(S(=O)(=O)NCCC3=CCCCC3)ccc2F)cc1`, 10.8 µM.
With `OCCN1CCN(C2Cc3cc(Cl)ccc3Sc3ccc(Cl)cc32)CC1` (stereo not drawn) (tested in a mixture with another compound), the IC50 was 20.4 µM.
As for `Oc1ccccc1-c1nc(NCc2cccnc2)c2ccccc2n1`, the figure is 60.5 µM; as for `Cc1ccc(F)c([C@H]2C3C=CCC(c4ccccc4)C3C(=O)N2Cc2ccccc2)c1` (stereo partly drawn), 15.2 µM.
Regarding `C=CCc1c(C)nc(-c2ccccc2)nc1N/N=C/c1ccccc1`, the IC50 was 26.2 µM.
Regarding `C=CCN(CC=C)S(=O)(=O)c1ccc(NC(=O)COc2ccccc2OC)cc1`, the IC50 is 77.3 µM.
As for `CN(C)c1ccc(-[n+]2c(-c3ccccc3)cc(-c3ccccc3)cc2-c2ccccc2)cc1`, the figure is 23.7 µM; as for `COc1ccc(C)c2sc(N3CCCC3)nc12`, 21.7 µM; as for `Cc1ccc(/C(N)=N/OC(=O)C(C)c2ccc([N+](=O)[O-])cc2)cc1` (stereo not drawn), 9.99 µM.
The result for `O=C(Nc1ccc(F)cc1)c1cccc2c1C(=O)N(Cc1ccccn1)C2` reads 18 µM; that for `S=C(NCCSCc1ccc(Cl)cc1)Nc1ccccc1`, 19.5 µM.
As for `COc1ccc(/C(N)=N/OC(=O)CC2CCCCC2)cc1OC`, the figure is 24.2 µM; as for `COc1ccccc1C(=O)Nc1ccc(S(=O)(=O)N2CCCCC2)cc1`, 24.9 µM.
On to `Cc1cccc(C(=O)O/N=C2\CCCc3ccccc32)c1`, for which the IC50 is > 100 µM (inactive).
As for `Cc1ccc(NC(=O)c2ccc(Cl)c(N3C(=O)C=CC3=O)c2)cc1`, the IC50 was 8.63 µM.
Take `CN1CCN(c2ccccc2NC(=O)c2ccc(-c3cccc(Cl)c3)o2)CC1`: the IC50 was 21.4 µM.
The result for `O=S(=O)(CCN(CCS(=O)(=O)C(F)(F)F)CC1CCCO1)C(F)(F)F` (stereo not drawn) reads 7.82 µM; that for `COc1ccc(C2(O)CC3CCC(C2)N3c2cc(C)nc(-c3ccccc3)n2)cc1` (stereo not drawn), 18.2 µM.
As for `Cc1ccnn2cc3c(=O)n(C)c(=O)n(C)c3c12`, the figure is 63.1 µM.
For `O=C(Cc1ccc(Cl)c(Cl)c1)Nc1ccc(SC(F)F)cc1`, the IC50 was 46.7 µM.
As for `C=CCNC(=S)NNc1nc2c(c(=O)[nH]1)C1(CCCCC1)Cc1ccccc1-2`, the figure is 40.3 µM.
As for `CN1CCN(c2cc(N3CCc4ccccc4C3)c(F)cc2[N+](=O)[O-])CC1`, the figure is 71.6 µM; as for `COc1ccc(OCC(=O)O/N=C(\N)Cc2ccc(Cl)cc2)cc1`, 38.4 µM; as for `Cc1ccc(/C(N)=N/OC(=O)N2CCOCC2)cc1`, 24.5 µM.
Turning to `N/C(=N\OC(=O)c1ccc(F)cc1)c1ccc(Br)cc1`, the IC50 was 6.61 µM.
The result for `N/C(Cc1cccs1)=N\OC(=O)COc1ccc(Cl)cc1Cl` reads 24.7 µM; that for `C=CCc1ccc(O)c(-c2ccc(O)c(CC=C)c2)c1`, 48.8 µM.
The result for `O=C(Nc1cccc(C(F)(F)F)c1)N1CCC(c2nc(-c3ccc(F)cc3)no2)CC1` reads 74.7 µM.
As for `O=C(COc1ccc(Cl)cc1Cl)Nc1ccc(S(=O)(=O)NC2=NCCCCC2)cc1`, the figure is 24.5 µM.
`O=C1c2cccc(Cl)c2C(=O)c2c1cccc2N1CCCC1`: the half-maximal inhibitory concentration (IC50) is 18.4 µM.
As to `Nc1c(C(=O)Nc2ccccc2)c2nc3ccccc3nc2n1CCCN1CCOCC1`, the IC50 is 8.41 µM.
The result for `O=C1C2C3C=CC(CO)(O3)C2C(=O)N1c1ccccc1-c1ccccc1` (stereo not drawn) reads 4.92 µM; that for `COC(=O)c1ccc(N2C(=O)CC(N(C)CCc3ccc(OC)c(OC)c3)C2=O)cc1` (stereo not drawn), 18.6 µM; that for `S=c1[nH]nc(-c2ccco2)n1/N=C/C=C/c1ccccc1`, 42.7 µM.
On to `O=[N+]([O-])c1ccccc1N/N=C/c1c[nH]c2ccccc12`, for which the concentration for half-maximal inhibition (IC50) is 13.8 µM.
As for `CCCCCCSc1ccc([C@H]2N[C@@](C)(C(=O)OC)[C@H]3C(=O)N(C)C(=O)[C@@H]23)cc1`, the figure is 53.2 µM.
The result for `CC(C)C(=O)Nc1ccc(-c2nc3ccccc3c(=O)o2)cc1` reads 36.5 µM.
In the case of `CCOC(=O)Cc1csc(NC(=O)CSc2ccc(Br)cc2)n1`, the IC50 is 37.8 µM.
For `C/C(=N\NC(=O)c1cc(-c2cccs2)nc2ccccc12)c1ccccn1`, the IC50 was 28.7 µM.
The result for `N/C(Cc1ccc(Cl)cc1)=N\OC(=O)c1ccc2ccccc2c1` reads 0.25 µM; that for `N/C(=N\OC(=O)c1ccccc1Cl)c1cccc([N+](=O)[O-])c1`, 23 µM.
`CC(C)(O)[C@H]1O[C@H]2CC[C@@]3(C)[C@@](O)(CC[C@H]4Cc5c([nH]c6ccccc56)[C@@]43C)C2=CC1=O`: the IC50 is 33.5 µM.
In the case of `O=C(/C=C\c1ccc(-c2ccccc2)o1)c1ccccc1`, the IC50 is 5.47 µM.
Turning to `O=C(Nc1cccc(N2C(=O)C=CC2=O)c1)c1cccs1`, the 50% inhibitory concentration (IC50) is 4.4 µM.
`CCOC(=O)/C=C/C(=O)OCC(=O)Nc1ccc([N+](=O)[O-])cc1`: the IC50 is 8.19 µM.
The result for `CC(=O)OC[C@]12CCC(C)=C[C@H]1O[C@@H]1[C@H](O)[C@@H](OC(C)=O)[C@@]2(C)[C@]12CO2` reads 30.8 µM; that for `Clc1ccc(CNc2nc(CN3CCOCC3)nc3scc(-c4ccccc4)c23)cc1`, 13.3 µM; that for `COc1ccc2oc(=O)c(-c3csc(Nc4cccc(O)c4)n3)cc2c1`, 21.9 µM.
The result for `CCN(CC)c1ncnc2c1ncn2Cc1c(Cl)cccc1Cl` reads 45.9 µM; that for `O=C(c1cccs1)c1c[nH]cc1-c1ccccc1`, > 100 µM (inactive); that for `CCn1nc(C)c(C(=O)Nc2cc(Oc3ccc(Cl)cc3)cc([N+](=O)[O-])c2)c1C`, 43.1 µM.
The result for `Cc1ccc(-c2csc(-c3c[nH]c4ccccc34)n2)cc1` reads 25.4 µM; that for `N/C(=N\OC(=O)CCC1CCCC1)c1cccc([N+](=O)[O-])c1`, 6.48 µM; that for `COc1cc(/C=N/N=C2/C(=O)Nc3ccccc32)cc(OC)c1O`, 30.1 µM.
As for `COc1ccc(C(CCNC(C)c2ccccc2)c2ccc(F)cc2)cc1` (stereo not drawn), the IC50 is 20.6 µM.
As for `Cc1ccccc1NC(=S)N(Cc1ccccn1)Cc1ccccc1Cl`, the figure is 20.9 µM; as for `Cc1nc(Nc2ccc(Cl)cc2Cl)sc1C(=O)Nc1ccccc1`, > 100 µM (inactive); as for `CC(=O)SC1CC(=O)N(c2ccc(C(C)(C)C)cc2)C1=O` (stereo not drawn), 38.8 µM.
The result for `O=C(CN1CCN(S(=O)(=O)c2ccc(Cl)cc2)CC1)Nc1ccc2c(c1)CCC2` reads 25.3 µM; that for `O=C(NNC(=S)Nc1ccc(Cl)cc1)c1ccccc1OC(F)F`, 12 µM.

By IC50 is commonly meant the concentration that inhibits the measured activity by half.
